“And” between values parts separate entries of the source, which are not always exact repeats. Identical values can stand only once. “Also recorded” adds a separate entry of the source. Like-named read-outs stand apart in the source and are kept apart here.
How the values were obtained:
[1] = tested on: other receptors, ion channels, and uptake sites (Table 2); experiment: Binding panel at 1 μM; details: any site of Table 2
Excerpt: (§1) Rimonabant also binds weakly to the Vanilloid 1 (TRPV1) receptor channel. […] CE-178253 was not evaluated against TRPM8. Rimonabant has been reported to bind to TRPM8 [21].

GPR55 = GPR55 (Homo sapiens, UniProt Q9Y2T6); experiment: GPR55 functional assay; assay type: biochemical; details: 10 μM
Excerpt: as §1

[2] = biological target: Vanilloid 1 (TRPV1) receptor channel (Homo sapiens, UniProt Q8NER1); experiment: TRPV1 functional assay; assay type: biochemical; details: range 9-13%, n = 2
Excerpt: as §1

[3] = Spontaneous nocturnal food intake; assay type: in vivo, rat; details: for Decrease in FI compared to veh.: 2 hr time point
Excerpt: All animal studies were approved by the Institutional Animal Care and Use Committee. Male Sprague Dawley rats on normal chow (8 weeks old, 250-300 g on arrival, 300-350 g on test day) were obtained from Charles River. After arrival, animals were individually housed and placed on powdered rat chow. Rats were maintained on a 12-hr light/dark cycle and received food and water ad libitum. In all studies CE-178253 and veh (0.5% methyl cellulose) administration to rats and mice was by oral gavage.
For the spontaneous, nocturnal FI assay, rats were administered veh. (0.5% methyl cellulose) or CE-178253 30 min prior to the start of the dark phase. Food consumption was monitored with electronic scales, and consumption was recorded every 10 min for 12 hr using an automated FI system (Columbus Instruments, Columbus, OH).
The first FI model used for determining anorectic efficacy of CE-178253 was spontaneous nocturnal feeding in rats. In rodents, most feeding activity takes place during the dark phase (nocturnal feeding cycle). In this model, male S-D rats were orally administered compound 30 min prior to the onset of the nocturnal phase. […] In addition, the effect of treatment on hourly FI was also assessed. […] No other time points in the interval analysis reach statistical significance. […] Cumulative food intake at the 2.5 hr time point was 3.2 ± 0.3, 2.4 ± 0.2, 0.5 ± 0.1 and 0.2 ± 0.1 in the veh, 0.3 mg/kg, 1 mg/kg, 3 mg/kg treated rats, respectively.

[4] = Unbound plasma concentration of CE-178253; assay type: in vivo, rat; details: for Unbound Plasma Concentration (± S-D): indirect calorimetry study; for concentration at […]: Sprague-Dawley, rat, plasma, oral, fast-induced refeeding study, read-out: Unbound Plasma Concentration (± S-D)
Experimental: Plasma bound fractions for CE-178253 were determined using an equilibrium dialysis assay, as previously described. Spectra-Por 2 membranes (Spectrum Laboratories Inc., Rancho Dominguez, CA) with a molecular cut-off of 12-14 kDa were used for the dialysis. Equilibrium of the system was achieved by incubating the apparatus for 4.5 hr in a 37°C reciprocating water bath (set at 155 rpm). A standard curve was set up over the range 1-1000 ng/mL. All samples were quantified using liquid chromatography/tandem mass spectrometry using a PE Sciex API 3000 spectrometer. For plasma, the unbound fraction was determined as the ratio of concentrations determined in buffer and plasma.

Indirect calorimetry = assay type: in vivo, rat; details: for Respiratory Quotient (VCO2/VO2): veh 0.85 ± 0.03; for VO2, ave, 1-3 hr (± S-D), increase in oxygen consumption: veh 3 ± 5
Experimental: Whole body oxygen consumption was measured using an indirect calorimeter (Oxymax from Columbus Instruments, Columbus, OH) in male Sprague Dawley rats. The rats (300-380 g body weight) were placed in the calorimetry chambers and the chambers were placed in activity monitors. All studies were conducted during the light cycle. Prior to the measurement of oxygen consumption, the rats were fed standard chow ad libitum. During the measurement of oxygen consumption, food was not provided to the rats. Basal, pre-dose oxygen consumption and ambulatory activity were measured every 10 min for 2.5 to 3 hr. At the end of the basal pre-dosing period, the chambers were opened and the animals were administered a single dose of compound (or veh.) by oral gavage. CE-178253 was prepared in 0.5% methylcellulose as veh. Oxygen consumption and ambulatory activity were measured every 10 min for an additional 1-6 hr after dosing. Resting oxygen consumption, during pre- and post-dosing, was calculated by averaging the 10-min O2 consumption values, excluding periods of high ambulatory activity (ambulatory activity count > 100) and excluding the first 5 values of the pre-dose period and the first value from the post-dose period. Change in oxygen consumption is reported as percent and is calculated by dividing the post-dosing resting oxygen consumption by the pre-dose oxygen consumption (X 100). VO2, VCO2, RER and locomotor activity were all measured.

[5] = Four day DIO rat food intake and body weight study; assay type: in vivo; details: 4-day, DIO rats
Experimental: Male 15 week old S-D rats which had been maintained on a high fat diet (Research Diets, D12079BM, 45% kcal from fat) for 10 weeks were selected for the DIO weight loss study. DIO rats were singly housed were acclimated to handling and dosing and two days of food intake were recorded to establish baseline food intake values before dosing was initiated. The heaviest animals were randomly sorted and assigned to treatment groups (n = 8 per group). The mean starting weight of all animals was 639 ± 8 g. Rats were dosed (2 mls/kg) with veh. or CE-178253 according to body weight. FI and BW were recorded daily.
DIO rats were treated once daily with veh. (0.5% MC) or CE-178253 at doses of 0.3 mg/kg p.o. or 1 mg/kg p.o. in a 4-day study (Figures 6A and 6B). […] The effects on FI were apparent after the first doses and sustained over the 4-day study period. […] In contrast, there was no change in weight in veh-treated rats. Initial and final body weights of veh-treated rats were 643 ± 15 g and 645 ± 14 g, respectively. Initial and final body weights of 0.3 mg/kg CE-178253-treated rats were 632 ± 11 g and 616 ± 12 g, respectively. Initial and final body weights of 1 mg/kg CE-178253-treated rats were 637 ± 11 g and 602 ± 11 g, respectively. A statistically significant difference in BW between veh and the 1 mg/kg dose was observed (p < 0.05).

[6] = tested on: central CB1 receptor-driven responses; set-up: method as in PMID 17630359; details: cited from earlier work

Sequence of GPR55 (Q9Y2T6 whole entry, species assumed): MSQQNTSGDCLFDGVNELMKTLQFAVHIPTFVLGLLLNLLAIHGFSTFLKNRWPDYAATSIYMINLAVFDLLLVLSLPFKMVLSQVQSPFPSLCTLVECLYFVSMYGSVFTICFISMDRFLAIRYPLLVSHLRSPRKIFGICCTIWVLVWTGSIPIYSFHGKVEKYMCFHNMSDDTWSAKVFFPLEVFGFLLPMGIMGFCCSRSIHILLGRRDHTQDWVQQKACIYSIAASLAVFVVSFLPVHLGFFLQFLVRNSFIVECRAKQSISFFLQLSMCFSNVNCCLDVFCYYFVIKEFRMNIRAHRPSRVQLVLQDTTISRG
Sequence of Vanilloid 1 (TRPV1) receptor channel (Q8NER1 whole entry, species assumed): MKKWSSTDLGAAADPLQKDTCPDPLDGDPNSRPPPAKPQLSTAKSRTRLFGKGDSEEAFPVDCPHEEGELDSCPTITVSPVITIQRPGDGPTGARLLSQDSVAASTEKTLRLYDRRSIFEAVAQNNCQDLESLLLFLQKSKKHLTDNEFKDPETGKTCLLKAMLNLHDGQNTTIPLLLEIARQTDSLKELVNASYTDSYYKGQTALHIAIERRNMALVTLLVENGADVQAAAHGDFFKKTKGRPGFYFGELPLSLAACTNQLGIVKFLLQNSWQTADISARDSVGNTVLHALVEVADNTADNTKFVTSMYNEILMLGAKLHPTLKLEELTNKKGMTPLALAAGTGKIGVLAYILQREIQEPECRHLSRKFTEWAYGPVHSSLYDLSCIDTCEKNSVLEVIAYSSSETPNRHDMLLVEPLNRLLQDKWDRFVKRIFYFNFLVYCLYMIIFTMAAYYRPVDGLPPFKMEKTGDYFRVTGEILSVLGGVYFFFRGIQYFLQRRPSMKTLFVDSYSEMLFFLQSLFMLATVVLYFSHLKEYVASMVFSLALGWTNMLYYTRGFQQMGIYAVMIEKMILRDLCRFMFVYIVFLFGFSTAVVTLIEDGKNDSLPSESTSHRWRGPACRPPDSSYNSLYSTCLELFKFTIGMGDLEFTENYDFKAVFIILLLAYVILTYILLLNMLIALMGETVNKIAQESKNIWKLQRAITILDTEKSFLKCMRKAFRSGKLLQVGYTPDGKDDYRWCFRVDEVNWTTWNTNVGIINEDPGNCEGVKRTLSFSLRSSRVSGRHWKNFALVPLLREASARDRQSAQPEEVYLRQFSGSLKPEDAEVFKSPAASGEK

For `CCNC1(C(N)=O)CN(c2nc(C)nc3c(-c4ccc(Cl)cc4)c(-c4ccccc4Cl)nn23)C1` [CE-178253], the “Inhibition of binding at panel sites” value [1] was at most 50%, the “Agonist activity at GPR55” value (GPR55) was “No agonist activity was detected; also recorded: GPR55 (no activity at 10 μM)” and the inhibition at 10 µM [2] was 11%. The “Decrease in FI compared to veh.” value ([3]; 0.3 mg/kg p.o.) was 25%, the “Decrease in FI compared to veh.” value ([3]; 1 mg/kg p.o.) was 84% and the “Decrease in FI compared to veh.” value ([3]; 3 mg/kg p.o.) was 94%. The EC50 ([3]; Rattus norvegicus, unbound plasma concentration (Cave, fu, p, 0-2.5 hr), cumulative FI at 2.5 hr post dose, read-out: Unbound EC50, reduction of food intake) was 0.5 nM, the “Unbound Plasma Concentration (± S-D)” value ([4]; 1 mg/kg p.o.) was 0.8 ± 0.2 nM and the “Unbound Plasma Concentration (± S-D)” value ([4]; 3 mg/kg p.o.) was 3.8 ± 0.9 nM. For the same compound, the concentration at […] ([4]; 0.3 mg/kg p.o.) was 0.17 ± 0.02 nM, the concentration at […] ([4]; 1 mg/kg p.o.) was 1 ± 0.3 nM and the concentration at […] ([4]; 3 mg/kg p.o.) was 2.7 ± 1 nM. For the same compound, the concentration at […] ([4]; 10 mg/kg p.o.) was 15.6 ± 1.6 nM, the “Respiratory Quotient (VCO2/VO2)” value (Indirect calorimetry; 1 mg/kg p.o.) was 0.74 ± 0.02 and the “VO2, ave, 1-3 hr (± S-D), increase in oxygen consumption” value (Indirect calorimetry; 1 mg/kg p.o.) was 28% and 28 ± 7 %. For the same compound, the “Respiratory Quotient (VCO2/VO2)” value (Indirect calorimetry; 3 mg/kg p.o.) was 0.75 ± 0.03, the “VO2, ave, 1-3 hr (± S-D), increase in oxygen consumption” value (Indirect calorimetry; 3 mg/kg p.o.) was 39% and 39 ± 5 % and the “Respiratory quotient after dosing” value (Indirect calorimetry; declined from 0.85 over the first hr, dose not stated) was 0.75. The “Acute stimulation of energy expenditure” value (Indirect calorimetry; rats, dose not stated) was “greater than 30%”, the “Decrease in body weight compared to veh” value ([5]; 0.3 mg/kg p.o. once daily) was 3.3% and the Final body weight ([5]; 0.3 mg/kg, initial 632 ± 11 g) was 616 ± 12 g. The “Decrease in body weight compared to veh” value ([5]; 1 mg/kg p.o. once daily) was 5.9%, the Final body weight ([5]; 1 mg/kg, initial 637 ± 11 g) was 602 ± 11 g and the “Effect on CP-55940 responses in all four components of the tetrad” value [6] was “dose-dependently reversed”.
